Measurements reported in ChEMBL document CHEMBL1142315, “In silico screening and biological evaluation of inhibitors of Src-SH3 domain interaction with a proline-rich ligand” (Bioorg Med Chem Lett, 2008).
The source made the active and inactive calls. The calls are words filed in the database; no cut-off is given here.

How the values were obtained:
[1] = target: Proto-oncogene tyrosine-protein kinase Src (Homo sapiens) (UniProt P12931); experiment: Inhibition of interaction between human Src-SH3 domain and PRP2 at 100 uM by fluorescence polarization technique
Sequence of Proto-oncogene tyrosine-protein kinase Src (Homo sapiens) (P12931 2-536 limits assumed): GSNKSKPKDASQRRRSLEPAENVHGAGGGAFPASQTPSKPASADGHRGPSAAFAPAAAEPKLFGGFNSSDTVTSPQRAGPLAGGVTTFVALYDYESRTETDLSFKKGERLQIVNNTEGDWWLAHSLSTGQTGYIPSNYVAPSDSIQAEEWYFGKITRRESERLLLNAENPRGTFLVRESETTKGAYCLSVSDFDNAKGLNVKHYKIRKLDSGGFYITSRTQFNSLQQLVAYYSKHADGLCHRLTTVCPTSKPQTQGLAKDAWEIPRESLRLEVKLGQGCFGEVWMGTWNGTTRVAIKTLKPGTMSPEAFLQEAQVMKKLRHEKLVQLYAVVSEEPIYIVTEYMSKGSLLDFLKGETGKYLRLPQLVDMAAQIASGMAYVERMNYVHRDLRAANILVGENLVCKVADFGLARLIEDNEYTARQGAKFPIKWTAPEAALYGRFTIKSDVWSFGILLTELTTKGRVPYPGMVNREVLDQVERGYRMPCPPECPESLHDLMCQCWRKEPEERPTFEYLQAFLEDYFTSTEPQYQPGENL

[2] = target: Proto-oncogene tyrosine-protein kinase Src (Homo sapiens) (UniProt P12931); experiment: Inhibition of interaction between human Src-SH3 domain and PRP2 at 800 uM by fluorescence polarization technique

With `COc1ccc(NCCNc2cc(C)nc3c2ccc2ccccc23)cc1OC` the inhibition [1] was 22% and the Activity [2] was “Active”.

In the case of `Cc1cc(NCCNc2ccc3c(c2)OCCO3)c2ccc3ccccc3c2n1`, the Activity [2] is reported as “Active”.
